Experimental data as given in patent US8974801B2, “Long term sustained release pharmaceutical composition containing aqueous suspension of bisphosphonate” (priority 2006, dated 2015).

Details: female, Sprague-Dawley, rat, in vivo

- Total Net Bone Absorbed: 770
SMILES: NCCCC(O)(P(=O)(O)O)P(=O)(O)O [Alendronate Calcium, alendronate calcium]
